Experimental data as given in patent US20060154243A1 (priority 2003, published 2006).

test system: serum 37 (individual 37); assay type: binding, human

Sequence	Binding of serum 37 to linear peptides of Orf14 of SARS-CoV TOR2
HVVAVIQEIQLLAAV	0.6
ILLLEWLAEVVKLPS	0.6
IQEIQLLAAVGEILL	0.7
IQLLAAVGEILLLEW	0.6
KPLLAPHHVVAVIQE	0.6
LAAVGEILLLEWLAE	0.7
LAPHHVVAVIQEIQL	0.5
LEWLAEVVKLPSRYC	0.7
LLAAVGEILLLEWLA	0.6
LLAPHHVVAVIQEIQ	0.6
LLEWLAEVVKLPSRY	0.5
LLLEWLAEVVKLPSR	0.7
MLPPCYNFLKEQHCQ	0.5
PHHVVAVIQEIQLLA	0.5

test system: serum SARS-yellow; assay type: binding, human

Sequence	Binding of serum SARS-yellow to linear peptides of Orf14 of SARS-CoV TOR2
HVVAVIQEIQLLAAV	0.4
ILLLEWLAEVVKLPS	0.3
IQEIQLLAAVGEILL	0.4
IQLLAAVGEILLLEW	0.4
KPLLAPHHVVAVIQE	0.4
LAAVGEILLLEWLAE	0.6
LAPHHVVAVIQEIQL	0.4
LEWLAEVVKLPSRYC	0.2
LLAAVGEILLLEWLA	0.4
LLAPHHVVAVIQEIQ	0.5
LLEWLAEVVKLPSRY	0.3
LLLEWLAEVVKLPSR	0.2
MLPPCYNFLKEQHCQ	0.2
PHHVVAVIQEIQLLA	0.4

test system: serum 1a (individual 1, early serum); assay type: binding, human

Sequence	Binding of serum 1a to linear peptides of Orf14 of SARS-CoV TOR2
HVVAVIQEIQLLAAV	0.5
ILLLEWLAEVVKLPS	0.5
IQEIQLLAAVGEILL	0.5
IQLLAAVGEILLLEW	0.5
KPLLAPHHVVAVIQE	0.5
LAAVGEILLLEWLAE	0.6
LAPHHVVAVIQEIQL	0.5
LEWLAEVVKLPSRYC	0.6
LLAAVGEILLLEWLA	0.5
LLAPHHVVAVIQEIQ	0.5
LLEWLAEVVKLPSRY	0.5
LLLEWLAEVVKLPSR	0.5
MLPPCYNFLKEQHCQ	0.4
PHHVVAVIQEIQLLA	0.4

test system: serum London; assay type: binding, human

Sequence	Binding of serum London to linear peptides of Orf14 of SARS-CoV TOR2
HVVAVIQEIQLLAAV	0.4
ILLLEWLAEVVKLPS	0.5
IQEIQLLAAVGEILL	0.3
IQLLAAVGEILLLEW	0.4
KPLLAPHHVVAVIQE	0.4
LAAVGEILLLEWLAE	0.6
LAPHHVVAVIQEIQL	0.4
LEWLAEVVKLPSRYC	0.5
LLAAVGEILLLEWLA	0.4
LLAPHHVVAVIQEIQ	0.5
LLEWLAEVVKLPSRY	0.4
LLLEWLAEVVKLPSR	0.6
MLPPCYNFLKEQHCQ	0.4
PHHVVAVIQEIQLLA	0.3

test system: serum 1b (individual 1, late serum); assay type: binding, human

Sequence	Binding of serum 1b to linear peptides of Orf14 of SARS-CoV TOR2
HVVAVIQEIQLLAAV	0.4
ILLLEWLAEVVKLPS	0.4
IQEIQLLAAVGEILL	0.4
IQLLAAVGEILLLEW	0.4
KPLLAPHHVVAVIQE	0.4
LAAVGEILLLEWLAE	0.5
LAPHHVVAVIQEIQL	0.4
LEWLAEVVKLPSRYC	0.3
LLAAVGEILLLEWLA	0.4
LLAPHHVVAVIQEIQ	0.5
LLEWLAEVVKLPSRY	0.4
LLLEWLAEVVKLPSR	0.4
MLPPCYNFLKEQHCQ	0.4
PHHVVAVIQEIQLLA	0.3

test system: serum 2 (individual 2); assay type: binding, human

Sequence	Binding of serum 2 to linear peptides of Orf14 of SARS-CoV TOR2
HVVAVIQEIQLLAAV	0.5
ILLLEWLAEVVKLPS	0.5
IQEIQLLAAVGEILL	0.4
IQLLAAVGEILLLEW	0.5
KPLLAPHHVVAVIQE	0.4
LAAVGEILLLEWLAE	0.5
LAPHHVVAVIQEIQL	0.4
LEWLAEVVKLPSRYC	0.4
LLAAVGEILLLEWLA	0.4
LLAPHHVVAVIQEIQ	0.5
LLEWLAEVVKLPSRY	0.3
LLLEWLAEVVKLPSR	0.4
MLPPCYNFLKEQHCQ	0.3
PHHVVAVIQEIQLLA	0.4

test system: serum 62 (individual 62); assay type: binding, human

Sequence	Binding of serum 62 to linear peptides of Orf14 of SARS-CoV TOR2
HVVAVIQEIQLLAAV	0.3
ILLLEWLAEVVKLPS	0.4
IQEIQLLAAVGEILL	0.4
IQLLAAVGEILLLEW	0.4
KPLLAPHHVVAVIQE	0.4
LAAVGEILLLEWLAE	0.5
LAPHHVVAVIQEIQL	0.4
LEWLAEVVKLPSRYC	0.4
LLAAVGEILLLEWLA	0.4
LLAPHHVVAVIQEIQ	0.5
LLEWLAEVVKLPSRY	0.4
LLLEWLAEVVKLPSR	0.4
MLPPCYNFLKEQHCQ	0.3
PHHVVAVIQEIQLLA	0.3

test system: control serum LUMC (pooled serum of ten healthy hospital workers); assay type: binding, human

Sequence	Control serum LUMC linear peptides	Control serum LUMC looped peptides
HVVAVIQEIQLLAAV	0.5	0.4
ILLLEWLAEVVKLPS	0.5	0.6
IQEIQLLAAVGEILL	0.6	0.5
IQLLAAVGEILLLEW	0.6	0.5
KPLLAPHHVVAVIQE	0.6	0.6
LAAVGEILLLEWLAE	0.6	0.7
LAPHHVVAVIQEIQL	0.6	0.5
LEWLAEVVKLPSRYC	0.4	0.7
LLAAVGEILLLEWLA	0.6	0.6
LLAPHHVVAVIQEIQ	0.6	0.8
LLEWLAEVVKLPSRY	0.4	0.6
LLLEWLAEVVKLPSR	0.5	0.5
MLPPCYNFLKEQHCQ	0.5	0.6
PHHVVAVIQEIQLLA	0.5	0.6

test system: serum 6 (individual 6); assay type: binding, human

Sequence	Binding of serum 6 to linear peptides of Orf14 of SARS-CoV TOR2
HVVAVIQEIQLLAAV	0.4
ILLLEWLAEVVKLPS	0.5
IQEIQLLAAVGEILL	0.4
IQLLAAVGEILLLEW	0.4
KPLLAPHHVVAVIQE	0.4
LAAVGEILLLEWLAE	0.5
LAPHHVVAVIQEIQL	0.4
LEWLAEVVKLPSRYC	0.4
LLAAVGEILLLEWLA	0.4
LLAPHHVVAVIQEIQ	0.5
LLEWLAEVVKLPSRY	0.5
LLLEWLAEVVKLPSR	0.6
MLPPCYNFLKEQHCQ	0.5
PHHVVAVIQEIQLLA	0.4

test system: control serum Blood-bank (commercial negative donor pooled serum); assay type: binding, human

Sequence	Control Serum Blood-Bank Looped peptides	Control serum Blood-bank linear peptides
HVVAVIQEIQLLAAV	0.6	0.4
ILLLEWLAEVVKLPS	0.7	0.6
IQEIQLLAAVGEILL	0.6	0.4
IQLLAAVGEILLLEW	0.6	0.5
KPLLAPHHVVAVIQE	0.6	0.5
LAAVGEILLLEWLAE	0.7	0.4
LAPHHVVAVIQEIQL	0.5	0.3
LEWLAEVVKLPSRYC	0.8	0.4
LLAAVGEILLLEWLA	0.6	0.5
LLAPHHVVAVIQEIQ	0.8	0.4
LLEWLAEVVKLPSRY	0.6	0.5
LLLEWLAEVVKLPSR	0.7	0.7
MLPPCYNFLKEQHCQ	0.7	0.4
PHHVVAVIQEIQLLA	0.5	0.4

test system: serum SARS-green; assay type: binding, human

Sequence	Binding of serum SARS-green to linear peptides of Orf14 of SARS-CoV TOR2
HVVAVIQEIQLLAAV	0.1
ILLLEWLAEVVKLPS	0.1
IQEIQLLAAVGEILL	0.3
IQLLAAVGEILLLEW	0.2
KPLLAPHHVVAVIQE	0.3
LAAVGEILLLEWLAE	0.5
LAPHHVVAVIQEIQL	0.1
LEWLAEVVKLPSRYC	0.1
LLAAVGEILLLEWLA	0.1
LLAPHHVVAVIQEIQ	0.3
LLEWLAEVVKLPSRY	0.1
LLLEWLAEVVKLPSR	0.3
MLPPCYNFLKEQHCQ	0.2
PHHVVAVIQEIQLLA	0.2
